Laboratory results from ChEMBL document CHEMBL1154685, “Simple oxidation of pyrimidinylhydrazones to triazolopyrimidines and their inhibition of Shiga toxin trafficking” (Eur J Med Chem, 2010).

Test system: HeLa
Experiment: Toxicity in human HeLa cells assessed as inhibition of protein synthesis by [35S]labeled methionine and cysteine incorporation
Type: cell-based

SMILES | Activity
Oc1ccc(-c2nc3c4c5c(sc4ncn3n2)CCCC5)cc1 | Non-toxic
COc1cc(/C=N/NC2=C3C4=C(CCCC4)SC3N=CN2)ccc1O (configuration not stated) | Non-toxic
